According to US20220339143A1, “TAK-925 FOR USE IN TREATING NARCOLEPSY” (Takeda Pharmaceutical Company Limited, priority 2019, published 2022):

Legend:
[1] = test system: healthy adults, healthy elderly subjects; test: Safety/tolerability of a single dose given as 9 hour continuous IV infusion in healthy adults and healthy elderly subjects; format: in vivo, human
Experimental: (§1) This study investigates (i) the safety and tolerability of Compound A (methyl (2R,3S)-3-((methylsulfonyl)amino)-2-(((cis-4-phenylcyclohexyl)oxy)methyl)piperidine-1-carboxylate) when a single dose given as a 9 hour continuous IV infusion is administered to healthy adults, healthy elderly subjects and patients with narcolepsy type 1 (NT1); (ii) the pharmacokinetics of Compound A when a single dose given as a 9 hour continuous IV infusion is administered to healthy adults, healthy elderly subjects and patients with narcolepsy type 1; and (iii) the pharmacodynamics (PD) effects of Compound A, primarily by evaluation of the sleep latency on MWT when a single dose given as a 9 hour continuous IV infusion is administered to patients with narcolepsy type 1.
Safety and tolerability: adverse events, vital signs, 12-lead ECG and clinical laboratory tests (hematological tests, blood biochemical tests and urinalysis)
To investigate the safety of Compound A, the treatment-emergent adverse events (TEAEs) for healthy subjects and subjects with narcolepsy type 1 (NT1 patients) treated with Compound A were evaluated. A summary of the TEAEs for healthy subjects from cohorts 1 and 2 is shown in FIG. 3, for healthy subjects from cohorts S1, S2, 3, and 4 is shown in FIG. 4, and for NT1 patients is shown in FIG. 5.

[2] = Single dose PK in healthy elderly subjects (Cohort 3), plasma; format: in vivo, human
Experimental: as §1
(§2) Pharmacokinetics: Concentrations of Compound A in plasma, and CSF, and pharmacokinetics parameters.

[3] = CSF PK in healthy subjects (Cohort 4); format: in vivo; settings: human; for concentration at 6 h: cerebrospinal fluid, intravenous, 112 mg, Cohort 4
Experimental: as §2
Following a single 9-hour IV infusion of 112 mg to healthy adult subjects in Cohort 4, Compound A plasma concentration-time profile was consistent with that observed in Cohort 1. At 6 hours after the start of infusion, mean ratio CSF/plasma concentration of Compound A was estimated to be about 2.8%.

[4] = test system: patients with narcolepsy type 1 (NT1); test: Number of cataplexy episodes (daily diary), single dose (Cohorts 5, 6, 7); format: in vivo, human; settings: for Number of Events of Cataplexy per Week in one particular patient: cohort 7
Text: Assessment of cataplexy and other sleep manifestations using a daily diary to collect episodes of cataplexy and sleep symptoms associated with NT1.

patients with NT1 [5] = test: Epworth Sleepiness Scale (ESS), multiple dose (Cohorts B1, B2); format: in vivo, human; settings: for ESS Change from Baseline, Median / ESS Observed Value, Median: Day 7; for ESS Observed Value, Mean: Day 7 (placebo 16.3); for ESS Change from Baseline, Mean: Day 7 (placebo −0.3)
Experimental: (§3) The purpose of the study was to evaluate the safety, tolerability, pharmacokinetics and pharmacodynamics of Compound A after multiple IV administration in patients with NT1. NT1 patients were evaluated in Cohort B1 and B2 (Table 19). Compound A or placebo were administered via IV infusion over 9 hours once daily for 7 days. A total of 13 patients with NT1 were treated with Compound A or placebo (4, 4, and 5 subjects in the placebo, Compound A 11 mg, and Compound A 44 mg groups, respectively). In this part, potential efficacy of Compound A was evaluated with MWT, ESS, KSS, night-time PSG (NPSG), cataplexy frequency assessment, and PGI-C as an exploratory PD assessment.

patients with NT1 [6] = test: KSS, multiple dose (Cohorts B1, B2); format: in vivo, human; settings: 9 hours postdose
Experimental: as §3

patients with NT1 [7] = test: Number of cataplexy episodes (self-recorded sleep diary), multiple dose (Cohorts B1, B2); format: in vivo, human; settings: for Number of Cataplexy Episodes, Median / Number of Cataplexy Episodes, Mean: Treatment Period (Day 1-7 [until 24 hours after start of infusion])
Experimental: as §3
An overview of study schedule and PD testing in NT1 Patients is illustrated in FIG. 11. After screening, patients eligible for these parts had to discontinue any medication for narcolepsy including medications used for EDS or cataplexy. The medications had to be stopped for a minimum of 7 days or at least 5 half-lives of each medication, whichever was longer, before the first day of dosing (Day 1). As for a subject having possibility of getting injured due to severe cataplexy, the subject might have been confined to the site before Day −2 at a discretion of the investigator. In all cohorts of these parts, subjects underwent NPSG on Day −2 and baseline MWT sessions 4 times on Day −1 (at around 10:00, 12:00, 14:00, and 16:00). Study drug dosing via IV infusion was started at around 08:00. MWT was conducted on Day 1 at around 10:00, 12:00, 14:00, and 16:00. Subjects were allowed to take a nap on the days with no MWT assessment. At night of Day 6, the subjects underwent NPSG once again to evaluate the effect of multiple daytime dosing on night-time sleep structure. On Day 7, the subjects underwent MWT at the same hours as on Day −1. Cataplexy was to be evaluated by using the self-recorded sleep diary. The subjects were discharged from the study site on Day 8.

patients with NT1 [8] = test: Safety and tolerability of multiple IV administration in patients with NT1; format: in vivo, human
Experimental: as §3

## COC(=O)N1CCC[C@H](NS(C)(=O)=O)[C@@H]1CO[C@H]1CC[C@@H](c2ccccc2)CC1 [Compound A, methyl (2R,3S)-3-((methylsulfonyl)amino)-2-(((cis-4-phenylcyclohexyl)oxy)methyl)piperidine-1-carboxylate]
[1]; human, in vivo
  BP and pulse rate increases vs Compound A concentration: Trend for the observed BP and pulse rate increases in healthy subjects and Compound A concentration was observed
[1]; human, in vivo, iv
  commonly observed AEs: BP increased and heart rate increased
[1]; single dose, 9 hour IV infusion, Compound A groups (healthy subjects and NT1 patients)
  adverse events (AEs), severity and seriousness: all of the AEs were mild (except 1 moderate influenza) and no serious AEs were observed
[2]
  reduction in clearance compared to younger healthy subjects: 20%
[3]; CSF, 112 mg single 9-hour IV infusion, 6 hours after the start of infusion, healthy adults Cohort 4, read-out: mean ratio CSF/plasma concentration
  Kp at 6 h: ~0.028
[3]; Mean
  concentration at 6 h: 6.73 ng/mL
[3]; Median
  concentration at 6 h: 6.63 ng/mL
[4]; 5 mg (N = 6)
  Subjects without any Events (cataplexy): 3 (50.0) N (%)
[4]; 5 mg, After End of Infusion
  Number of Times of a Cataplexy Episode, Mean (SD): 10.2 (23.45)
  Number of Times of a Cataplexy Episode, Median: 0.5
[4]; 5 mg, During Infusion
  Number of Times of a Cataplexy Episode, Mean (SD): 0.0 (0.00)
  Number of Times of a Cataplexy Episode, Median: 0.0
[4]; 11.2 mg (N = 4)
  Subjects without any Events (cataplexy): 3 (75.0) N (%)
[4]; 11.2 mg, After End of Infusion
  Number of Times of a Cataplexy Episode, Mean (SD): 0.0 (0.00)
  Number of Times of a Cataplexy Episode, Median: 0.0
[4]; 11.2 mg, During Infusion
  Number of Times of a Cataplexy Episode, Mean (SD): 0.8 (1.50)
  Number of Times of a Cataplexy Episode, Median: 0.0
[4]; 44.8 mg (N = 4)
  Subjects without any Events (cataplexy): 3 (75.0) N (%)
[4]; 44.8 mg, After End of Infusion
  Number of Times of a Cataplexy Episode, Mean (SD): 0.8 (1.50)
  Number of Times of a Cataplexy Episode, Median: 0.0
[4]; 44.8 mg, During Infusion
  Number of Times of a Cataplexy Episode, Mean (SD): 0.0 (0.00)
  Number of Times of a Cataplexy Episode, Median: 0.0
[4]; During Cmpd A infusion (baseline 808, during placebo infusion 83)
  Number of Events of Cataplexy per Week in one particular patient: 0
[4]; Post Cmpd A infusion
  Number of Events of Cataplexy per Week in one particular patient: 58
[4]; during the infusion of Compound A
  frequency of cataplexy compared to baseline frequency in one patient of cohort 7: remarkably improved
Patients with NT1 [5]; 11 mg
  ESS Change from Baseline, Median: −9.5
  ESS Observed Value, Median: 8.5
  ESS Observed Value, Mean: 9.8
  ESS Change from Baseline, Mean: −8.3
Patients with NT1 [5]; 44 mg
  ESS Change from Baseline, Median: −18.0
  ESS Observed Value, Median: 0.0
  ESS Observed Value, Mean: 0.0
  ESS Change from Baseline, Mean: −18.6
Patients with NT1 [6]; 11 mg, Day 1 (placebo 0.0)
  mean change from baseline in KSS: −3.0
Patients with NT1 [6]; 11 mg, Day 7 (placebo −0.3)
  mean change from baseline in KSS: −2.0
Patients with NT1 [6]; 44 mg, Day 1 (placebo 0.0)
  mean change from baseline in KSS: −4.4
Patients with NT1 [6]; 44 mg, Day 7 (placebo −0.3)
  mean change from baseline in KSS: −4.6
Patients with NT1 [7]; 11 mg, Day 1-7 (after infusion time up to 24 hours after start of infusion)
  Number of Cataplexy Episodes (Time-matched), Median: 1.0
Patients with NT1 [7]; 11 mg, Day 1-7 (after infusion time up to 24 hours after start of infusion), time-matched baseline 5.8
  Number of Cataplexy Episodes (Time-matched), Mean: 3.0
Patients with NT1 [7]; 11 mg, Day 1-7 (during infusion time)
  Number of Cataplexy Episodes (Time-matched), Median: 0.0
Patients with NT1 [7]; 11 mg, Day 1-7 (during infusion time), time-matched baseline 5.8
  Number of Cataplexy Episodes (Time-matched), Mean: 0
Patients with NT1 [7]; 11 mg, Day 1-7 (during infusion time), time-matched baseline 5.8, listed as Cmpd A
  Number of Cataplexy Episodes (Time-matched), Mean: 0.0
Patients with NT1 [7]; 11 mg
  Number of Cataplexy Episodes, Median: 1.0
Patients with NT1 [7]; 11 mg, baseline 11.5
  Number of Cataplexy Episodes, Mean: 3.0
Patients with NT1 [7]; 44 mg, Day 1-7 (after infusion time up to 24 hours after start of infusion)
  Number of Cataplexy Episodes (Time-matched), Median: 1.0
Patients with NT1 [7]; 44 mg, Day 1-7 (after infusion time up to 24 hours after start of infusion), time-matched baseline 0.4
  Number of Cataplexy Episodes (Time-matched), Mean: 1.4
Patients with NT1 [7]; 44 mg, Day 1-7 (during infusion time)
  Number of Cataplexy Episodes (Time-matched), Median: 0.0
Patients with NT1 [7]; 44 mg, Day 1-7 (during infusion time), time-matched baseline 3.2
  Number of Cataplexy Episodes (Time-matched), Mean: 0
Patients with NT1 [7]; 44 mg, Day 1-7 (during infusion time), time-matched baseline 3.2, listed as Cmpd A
  Number of Cataplexy Episodes (Time-matched), Mean: 0.0
Patients with NT1 [7]; 44 mg
  Number of Cataplexy Episodes, Median: 1.0
Patients with NT1 [7]; 44 mg, baseline 3.6
  Number of Cataplexy Episodes, Mean: 1.4
Patients with NT1 [8]; NT1 patient populations
  BP and PR increases vs plasma exposure: A trend for the observed BP and PR increases with increasing Compound A plasma exposure was observed
Patients with NT1 [8]; multiple IV administrations of up to 44 mg, 9 h infusion once daily for 7 days, NT1
  safety and tolerability: safe and well tolerated
Patients with NT1 [8]; multiple IV administrations of up to 44 mg, NT1
  SAE and TEAE leading to study drug discontinuation: There was no SAE, and no TEAE leading to study drug discontinuation
